Converted amounts (≈) assume the structure as drawn. “Also recorded” adds a separate entry of the source.
Key:
[1] = Kinetic solubility in water, SGF and FaSSIF at 37° C.; assay type: physicochemical; conditions: for Kinetic solubility in water (in words): Freebase Type E+F as control
Description: Kinetic Solubility. Kinetic solubility of salt leads was measured in water, SGF and FaSSIF to evaluate their solubility and disproportionation risk, using Freebase Type E+F (818718-01-A) as control. […] After centrifugation, supernatants were collected for HPLC and pH tests, and wet cakes were collected for XRPD characterization.

[2] = Hygroscopicity by dynamic vapor sorption (DVS); assay type: physicochemical; conditions: for Hygroscopicity (%), water uptake: DVS, 25° C./80% RH; for Form Change after DVS: XRPD before and after DVS
Description: Hygroscopicity. DVS isotherm plot was collected at 25° C. to investigate the solid form stability as a function of humidity. All of Freebase Type E+F, L-Malate Type B, Succinate Type B and Mesylate Type A were equilibrated at ambient humidity (70% RH or 80% RH) to prevent form change before testing.
DVS. Dynamic Vapor Sorption (DVS) was measured via a SMS (Surface Measurement Systems) DVS Intrinsic. The relative humidity at 25° C. was calibrated against deliquescence point of LiCl, Mg(NO3)2 and KCl.

[3] = Two-week solid-state stability (XRPD, HPLC purity); assay type: physicochemical; conditions: two weeks; for Stress stability / solid-state physical and chemical stability (in words): 25° C./60% RH and 40° C./75% RH (open); for Purity (area %) after storage / Purity vs Initial (%): open
Description: Solid-state Stability. Solid-state stability of Freebase Type E+F (818718-01-A), L-Malate Type B (818718-21-A1) and Mesylate Type A (818718-21-A5) were evaluated under 25° C./60% RH and 40° C./75% RH (open) for two weeks. Stability samples were characterized by XRPD to check any solid form change, and by HPLC to check purity change.

Apc^Min+/− mice = assay: ApcMin mouse efficacy model; assay type: in vivo
Description: TNK1 upregulation is reported to play a role in the pathogenic process of intestinal barrier disruption in a transgenic mice model of increased TNK1 expression/activation (PMID: 30320600). Therefore, the efficacy of the compound of structural formula I was evaluated in germline mutant mouse model of intestinal neoplasia and cachexia, Apc^Min+/− model, which is also known to induce gut barrier dysfunction (PMID: 21914473). Apc^Min+/− mice are reported to start the development of tumors at approximately 4 weeks of age. Twenty female Apc^Min+/− mice (JAX Stock No: 002020) were enrolled in the study at the age of 10 weeks. Randomization was done based on the body weight, and animals were divided into four treatment groups (5 mice/group). […] Celecoxib is a COX-2 inhibitor, and was used as a positive control because it has been reported to prevent and regress adenomas in APC model (PMID: 11016626). Mice were sacrificed 2 hours after the last dose of total 10 weeks of dosing (71 days), at the age of 20 weeks. After dosing started, the animals were checked daily for morbidity and mortality.

COc1cc(N2CCN(C)CC2)c(Cl)cc1Nc1ncc(Cl)c(Nc2cccnc2N2CCCC2=O)n1 [Freebase Type E+F]
FC: form change ([1]; FaSSIF, 1 hr): Yes
S: solubility ([1]; FaSSIF, 1 hr): 170 µg/mL
pH: final pH ([1]; FaSSIF, 1 hr): 6.6
FC: form change ([1]; FaSSIF, 4 hrs): Yes
S: solubility ([1]; FaSSIF, 4 hrs): 180 µg/mL
pH: final pH ([1]; FaSSIF, 4 hrs): 5.6
FC: form change ([1]; FaSSIF, 24 hrs): Yes
S: solubility ([1]; FaSSIF, 24 hrs): 110 µg/mL
pH: final pH ([1]; FaSSIF, 24 hrs): 6.5
FC: form change ([1]; H2O, 1 hr): Yes
S: solubility ([1]; H2O, 1 hr): 1.2 µg/mL
pH: final pH ([1]; H2O, 1 hr): 8.8
FC: form change ([1]; H2O, 4 hrs): Yes
S: solubility ([1]; H2O, 4 hrs): 1.2 µg/mL
pH: final pH ([1]; H2O, 4 hrs): 8.6
FC: form change ([1]; H2O, 24 hrs): Yes
S: solubility ([1]; H2O, 24 hrs): 2.4 µg/mL
pH: final pH ([1]; H2O, 24 hrs): 8.4
Kinetic solubility in SGF (in words) ([1]; SGF): relatively high solubility
solubility at 1 h ([1]; SGF, 37 °C, simulated gastric fluid, thermodynamic from solid, SGF, 1 hr, read-out: S: solubility): 7100 µg/mL (≈ 13.1 mM)
solubility at 4 h ([1]; SGF, 37 °C, simulated gastric fluid, thermodynamic from solid, SGF, 4 hrs, read-out: S: solubility): 7200 µg/mL (≈ 13.2 mM)
solubility at 24 h ([1]; SGF, 37 °C, simulated gastric fluid, thermodynamic from solid, SGF, 24 hrs, read-out: S: solubility): 7200 µg/mL (≈ 13.2 mM)
FC: form change ([1]; SGF, 1 hr): Yes
pH: final pH ([1]; SGF, 1 hr): 5.4
FC: form change ([1]; SGF, 4 hrs): Yes
pH: final pH ([1]; SGF, 4 hrs): 5.4
FC: form change ([1]; SGF, 24 hrs): Yes
pH: final pH ([1]; SGF, 24 hrs): 6.2
Kinetic solubility in SGF (in words) ([1]; SGF, listed as Freebase Type E + F): showed relatively high solubility in SGF at 37 °C L-Malate
form after kinetic solubility test ([1]; all the three media (water, SGF, FaSSIF)): turned to Freebase Type E
Hygroscopicity (%), water uptake [2]: 1.55%
Hygroscopicity (%), water uptake ([2]; listed as Freebase Type E + F): hygroscopic (1.55) %
Form Change after DVS [2]: No form change
Form Change after DVS ([2]; listed as Freebase Type E + F): No
Hygroscopicity (class) ([2]; based on water uptake at 25° C./80% RH): slightly hygroscopic (slightly hygroscopic - 0.2~2%)
Stress stability / solid-state physical and chemical stability (in words) [3]: good physical and chemical stability; also recorded: good physicochemical stability
Purity (area %) after storage ([3]; 25° C./60% RH): 98.64 area %
Purity vs Initial (%) ([3]; 25° C./60% RH): 100.0%
Purity (area %) after storage ([3]; 40° C./75% RH): 98.75 area %
Purity vs Initial (%) ([3]; 40° C./75% RH): 100.1%

COc1cc(N2CCN(C)CC2)c(Cl)cc1Nc1ncc(Cl)c(Nc2cccnc2N2CCCC2=O)n1 [L-Malate Type B]
S: solubility ([1]; FaSSIF, 1 hr): 7200 µg/mL
pH: final pH ([1]; FaSSIF, 1 hr): 5.0
S: solubility ([1]; FaSSIF, 4 hrs): 6900 µg/mL
pH: final pH ([1]; FaSSIF, 4 hrs): 4.9
S: solubility ([1]; FaSSIF, 24 hrs): 7400 µg/mL
pH: final pH ([1]; FaSSIF, 24 hrs): 4.9
Kinetic solubility in FaSSIF (in words) ([1]; FaSSIF, compared with Mesylate Type A and Freebase Type E+F): Type B showed much higher solubility than Mesylate Type A
S: solubility ([1]; H2O, 1 hr): 7100 µg/mL
pH: final pH ([1]; H2O, 1 hr): 4.0
S: solubility ([1]; H2O, 4 hrs): 7200 µg/mL
pH: final pH ([1]; H2O, 4 hrs): 4.0
S: solubility ([1]; H2O, 24 hrs): 6700 µg/mL
pH: final pH ([1]; H2O, 24 hrs): 4.1
Kinetic solubility in SGF (in words) ([1]; SGF): showed relatively high solubility in SGF at 37 °C L-Malate
S: solubility ([1]; SGF, 1 hr): 7600 µg/mL
pH: final pH ([1]; SGF, 1 hr): 3.2
S: solubility ([1]; SGF, 4 hrs): 7700 µg/mL
pH: final pH ([1]; SGF, 4 hrs): 3.1
S: solubility ([1]; SGF, 24 hrs): 6900 µg/mL
pH: final pH ([1]; SGF, 24 hrs): 3.2
Kinetic solubility in water (in words) [1]: increased solubility
Hygroscopicity (%), water uptake [2]: 3.00%
Form Change after DVS [2]: No form change and No
Stress stability / solid-state physical and chemical stability (in words) [3]: good physical and chemical stability; also recorded: good physicochemical stability
Purity (area %) after storage ([3]; 25° C./60% RH): 98.97 area %
Purity vs Initial (%) ([3]; 25° C./60% RH): 100.0%
Purity (area %) after storage ([3]; 40° C./75% RH): 98.96 area %
Purity vs Initial (%) ([3]; 40° C./75% RH): 100.0%

COc1cc(N2CCN(C)CC2)c(Cl)cc1Nc1ncc(Cl)c(Nc2cccnc2N2CCCC2=O)n1 [Mesylate Type A]
FC: form change ([1]; FaSSIF, 1 hr): new form with low crystallinity and Yes
S: solubility ([1]; FaSSIF, 1 hr): 370 µg/mL
pH: final pH ([1]; FaSSIF, 1 hr): 6.4
FC: form change ([1]; FaSSIF, 4 hrs): Yes
S: solubility ([1]; FaSSIF, 4 hrs): 360 µg/mL
pH: final pH ([1]; FaSSIF, 4 hrs): 6.3
FC: form change ([1]; FaSSIF, 24 hrs): Yes
S: solubility ([1]; FaSSIF, 24 hrs): 340 µg/mL
pH: final pH ([1]; FaSSIF, 24 hrs): 6.2
S: solubility ([1]; H2O, 1 hr): 7500 µg/mL
pH: final pH ([1]; H2O, 1 hr): 6.1
S: solubility ([1]; H2O, 4 hrs): 7500 µg/mL
pH: final pH ([1]; H2O, 4 hrs): 6.2
S: solubility ([1]; H2O, 24 hrs): 7400 µg/mL
pH: final pH ([1]; H2O, 24 hrs): 6.0
Kinetic solubility in SGF (in words) ([1]; SGF): showed relatively high solubility in SGF at 37 °C L-Malate
S: solubility ([1]; SGF, 1 hr): 8200 µg/mL
pH: final pH ([1]; SGF, 1 hr): 2.5
S: solubility ([1]; SGF, 4 hrs): 8000 µg/mL
pH: final pH ([1]; SGF, 4 hrs): 2.6
S: solubility ([1]; SGF, 24 hrs): 7400 µg/mL
pH: final pH ([1]; SGF, 24 hrs): 2.5
Kinetic solubility in water (in words) [1]: increased solubility
Hygroscopicity (%), water uptake [2]: 2.74%
Form Change after DVS [2]: No form change and No
Stress stability / solid-state physical and chemical stability (in words) [3]: good physical and chemical stability; also recorded: good physicochemical stability; also recorded: good physiochemical stability
Purity (area %) after storage ([3]; 25° C./60% RH): 99.31 area %
Purity vs Initial (%) ([3]; 25° C./60% RH): 100.1%
Purity (area %) after storage ([3]; 40° C./75% RH): 99.43 area %
Purity vs Initial (%) ([3]; 40° C./75% RH): 100.2%

COc1cc(N2CCN(C)CC2)c(Cl)cc1Nc1ncc(Cl)c(Nc2cccnc2N2CCCC2=O)n1 [Succinate Type B]
Hygroscopicity (%), water uptake [2]: 8.22%
Form Change after DVS [2]: No form change

Cc1ccc(-c2cc(C(F)(F)F)nn2-c2ccc(S(N)(=O)=O)cc2)cc1 [celecoxib, reference compound]
reduction of spleen size compared to vehicle (Apc^Min+/− mice; 120 mg/kg): approximately 26%
decrease in number of polyps in the intestine compared to vehicle (Apc^Min+/− mice; 120 mg/kg once daily oral gavage, 10 weeks, female Apc^Min+/− mice): approximately 90%

Reference: patent publication US20240091226A1, “Forms and Formulations Of A Tyrosine Kinase Non-Receptor 1 (TNK1) Inhibitor” (Sumitomo Pharma Oncology, inc., priority 2021, published 2024)
